Measured values reported in article PMC3248963 (Bioorganic & medicinal chemistry letters, 2011).
Where no end group is shown, it is not given here.

Columns and labels:
[1] = system: dipeptidyl peptidase 4 (DPP4); settings: cited from earlier work
GLP1 receptor = settings: cited from earlier work
[2] = molecular target: human GLP1 receptor (CHO-GLP1R cells) (Homo sapiens, UniProt P43220); experiment: intracellular cAMP response assay, wild type receptor; format: cell-based; settings: EC50 values
Chain of human GLP1 receptor (CHO-GLP1R cells) (P43220 24-463): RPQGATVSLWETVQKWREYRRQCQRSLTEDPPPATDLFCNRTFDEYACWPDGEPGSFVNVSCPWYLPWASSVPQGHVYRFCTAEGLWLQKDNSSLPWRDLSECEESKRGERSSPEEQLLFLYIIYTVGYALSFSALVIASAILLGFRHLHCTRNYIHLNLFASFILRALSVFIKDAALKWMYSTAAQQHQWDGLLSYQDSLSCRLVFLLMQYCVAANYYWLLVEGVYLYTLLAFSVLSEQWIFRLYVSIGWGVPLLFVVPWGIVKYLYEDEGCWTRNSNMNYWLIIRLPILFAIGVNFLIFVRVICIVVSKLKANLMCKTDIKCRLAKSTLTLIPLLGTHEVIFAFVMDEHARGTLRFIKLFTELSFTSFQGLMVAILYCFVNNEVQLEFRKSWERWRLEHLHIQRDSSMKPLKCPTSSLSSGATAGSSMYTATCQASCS

M397L GLP1 receptor = M397L GLP1 receptor (Homo sapiens, UniProt P43220, M397L); experiment: intracellular cAMP response assay, M397L mutant receptor; format: cell-based
Chain of M397L GLP1 receptor (P43220 24-463 M397L): as the sequence (P43220 24-463) above, with M374L counted along it

[3] = molecular target: GLP1 receptor (CHO-GLP1R cell membranes) (Homo sapiens, UniProt P43220); experiment: photoaffinity labeling of wild type receptor by radioiodinated Bpa-NRTFD
Chain of GLP1 receptor (CHO-GLP1R cell membranes) (P43220 24-463): as the sequence (P43220 24-463) above

Row | Compound | degradation by DPP4 [1] | blockade of agonist action by high affinity peptide antagonist (GLP1 receptor) | EC50 [2] | EC50 (M397L GLP1 receptor) | IC50 [3]
1 | CC[C@H](C)[C@H](NC(=O)[C@H](Cc1ccccc1)NC(=O)[C@H](CCC(=O)O)NC(=O)[C@H](CCCCN)NC(=O)[C@H](C)NC(=O)[C@H](C)NC(=O)[C@H](CCC(N)=O)NC(=O)CNC(=O)[C@H](CCC(=O)O)NC(=O)[C@H](CC(C)C)NC(=O)[C@H](Cc1ccc(O)cc1)NC(=O)[C@H](CO)NC(=O)[C@H](CO)NC(=O)[C@@H](NC(=O)[C@H](CC(=O)O)NC(=O)[C@H](CO)NC(=O)[C@@H](NC(=O)[C@H](Cc1ccccc1)NC(=O)[C@@H](NC(=O)CNC(=O)[C@H](CCC(=O)O)NC(=O)[C@H](C)NC(=O)[C@@H](N)Cc1c[nH]cn1)[C@@H](C)O)[C@@H](C)O)C(C)C)C(=O)N[C@@H](C)C(=O)N[C@@H](Cc1c[nH]c2ccccc12)C(=O)N[C@@H](CC(C)C)C(=O)N[C@H](C(=O)N[C@@H](CCCCN)C(=O)NCC(=O)N[C@@H](CCCNC(=N)N)C(N)=O)C(C)C [GLP1] | rapidly degraded | competitively blocked | – | – | –
2 | NRTFD [NRTFD] | – | – | 1.6 ± 0.5 µM | 2.2 ± 0.8 µM | 3.1 ± 0.8 µM
